The source of these data is patent US6638947B2, “Carbocyclic and heterocyclic substituted semicarbazones and thiosemicarbazones and the use thereof” (Euro-Celtique S.A., priority 1997, dated 2003).

Molecules are shown by their SMILES.

In data set [1] the target is T1, human skeletal muscle Na^+ channel subunit (Homo sapiens, UniProt P35499).
T1 construct: expressed in transfected cells
In words: Na^+ current recordings in HEK-293 cells stably expressing human skeletal muscle Na^+ channel subunit. It counts as cell-based. How it is done: The relative in vitro potency of these compounds were determined by their ability to inhibit human skeletal muscle Na^+ channel subunit stable expressed in HEK-293 cells. The techniques employed for Na^+ current recordings and analysis with the use of this cell line were similar to that described in example 36. These studies employ depolarizing prepulses of varying duration to allow drugs to bind, a brief (5 ms) repolarizing step to reprime unbound channels, followed by the test pulse (5 ms) to measure what proportion of channels are inhibited. The reduction in peak currents is then plotted as a function of prepulse duration and the time constant (τ) measured by monoexponential fit. A plot of 1/τ as a function of antagonist concentration then allows the macroscopic binding rates of the antagonists to be calculated. The anticonvulsant activities of additional compounds of the present invention were determined as described in example 38.

Data set [2] relates to voltage-sensitive Na^+ channels. Put plainly: Electrophysiological assay: patch-clamp recordings of voltage-sensitive Na^+ currents in acutely dissociated hippocampal neurons. It counts as cell-based, rat. The protocol:
Electrophysiological Assay:
Cell preparation: Acute cultures of rat hippocampal neurons were prepared daily using a modification of procedures described previously (Kuo and Bean, Mol. Pharm. 46:716-725 (1994)). Briefly, hippocampi were isolated from 3-11 day old rat pup brains (Sprague-Dawley; Charles River) and were sectioned, by hand, into 0.5-1 mm thick transverse slices (Whittemore and Koerner, Eur. J. Pharm. 192:435-438 (1991)). Slices were incubated for at least 30 min at room temperature (20-24° C.) in an oxygenated medium (124 mM NaCl, 3.3 mM KCl, 2.4 mM MgSO4, 2.5 mM CaCl2, 1.2 mM KH2PO4, 26 mM NaHCO3, pH =7.4) continuously bubbled with 5% CO2/95% O2. […]
Patch-clamp recordings of voltage-sensitive Na^+ currents: Whole-cell voltage-clamp recordings were made using conventional patch-clamp technique (Hamill et al., Pfluegers Arch. 391:85-100 (1981)) with an Axopatch 200A amplifier (Axon Instruments, Foster City, Calif.). […] Currents were recorded at room temperature (22-25° C.), filtered at 5 kHz with 4-pole Bessel filter, digitized at 20-50-μs intervals, and stored using Digidata 1200 analog/digital interface with Pclamp6/Clampex software (Axon Instruments). […] The inhibitory potency of drugs was assessed by measuring reductions in the peak amplitude of Na^+ currents induced by increasing concentrations of compounds tested. […]

Data set [3] deals with site 2 of the Na^+ channel. The format is binding, rat.

T1 sequence (P35499 whole entry): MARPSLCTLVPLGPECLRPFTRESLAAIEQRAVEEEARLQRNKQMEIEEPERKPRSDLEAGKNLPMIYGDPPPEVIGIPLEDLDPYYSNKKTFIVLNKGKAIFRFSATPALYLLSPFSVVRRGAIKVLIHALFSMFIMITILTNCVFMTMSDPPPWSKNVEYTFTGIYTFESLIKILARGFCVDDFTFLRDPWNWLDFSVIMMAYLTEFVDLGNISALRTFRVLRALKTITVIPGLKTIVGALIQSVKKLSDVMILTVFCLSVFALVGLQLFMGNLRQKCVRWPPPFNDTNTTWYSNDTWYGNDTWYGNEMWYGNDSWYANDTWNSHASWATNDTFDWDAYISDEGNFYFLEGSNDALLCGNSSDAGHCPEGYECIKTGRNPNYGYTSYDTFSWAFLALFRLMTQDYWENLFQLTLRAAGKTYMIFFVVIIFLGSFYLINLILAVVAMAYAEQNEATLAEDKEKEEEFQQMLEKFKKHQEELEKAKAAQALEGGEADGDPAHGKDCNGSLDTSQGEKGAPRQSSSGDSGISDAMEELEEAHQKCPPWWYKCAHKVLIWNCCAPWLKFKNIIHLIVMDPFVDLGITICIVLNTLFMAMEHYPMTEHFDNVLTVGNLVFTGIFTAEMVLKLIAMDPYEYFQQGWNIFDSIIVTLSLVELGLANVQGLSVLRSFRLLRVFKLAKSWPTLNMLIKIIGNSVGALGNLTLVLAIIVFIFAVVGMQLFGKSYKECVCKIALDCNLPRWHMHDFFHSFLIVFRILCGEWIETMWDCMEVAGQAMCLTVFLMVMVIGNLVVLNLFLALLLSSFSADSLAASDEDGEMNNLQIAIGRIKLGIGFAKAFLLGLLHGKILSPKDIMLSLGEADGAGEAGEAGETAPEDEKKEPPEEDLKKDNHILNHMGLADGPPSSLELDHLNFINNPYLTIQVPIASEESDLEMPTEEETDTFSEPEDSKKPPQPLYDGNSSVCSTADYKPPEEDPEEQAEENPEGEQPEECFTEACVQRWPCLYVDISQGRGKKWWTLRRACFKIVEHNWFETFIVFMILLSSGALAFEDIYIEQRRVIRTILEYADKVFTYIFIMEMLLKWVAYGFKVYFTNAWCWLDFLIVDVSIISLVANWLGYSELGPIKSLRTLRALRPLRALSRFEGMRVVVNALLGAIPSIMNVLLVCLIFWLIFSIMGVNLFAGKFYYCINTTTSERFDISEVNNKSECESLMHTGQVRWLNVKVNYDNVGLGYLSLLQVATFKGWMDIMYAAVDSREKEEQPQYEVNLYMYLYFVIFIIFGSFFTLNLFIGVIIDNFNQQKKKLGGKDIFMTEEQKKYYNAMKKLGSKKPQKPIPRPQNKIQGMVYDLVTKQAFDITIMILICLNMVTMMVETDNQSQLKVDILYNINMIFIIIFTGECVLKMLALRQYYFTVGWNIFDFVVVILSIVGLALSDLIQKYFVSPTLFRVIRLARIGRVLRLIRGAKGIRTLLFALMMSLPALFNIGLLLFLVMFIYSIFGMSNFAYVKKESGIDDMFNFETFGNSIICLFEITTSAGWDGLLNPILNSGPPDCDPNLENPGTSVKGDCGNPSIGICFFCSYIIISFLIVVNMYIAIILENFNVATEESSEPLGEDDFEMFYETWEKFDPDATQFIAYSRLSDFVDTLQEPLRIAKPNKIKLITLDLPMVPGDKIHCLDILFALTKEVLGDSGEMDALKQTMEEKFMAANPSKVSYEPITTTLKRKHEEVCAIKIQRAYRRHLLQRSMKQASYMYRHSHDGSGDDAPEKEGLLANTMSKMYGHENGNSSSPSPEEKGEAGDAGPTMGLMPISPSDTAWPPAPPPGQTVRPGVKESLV

In turn, `NC(=O)NN=Cc1ccc(Oc2ccc(Cl)cc2F)cc1` [4-(2-Fluoro-4-chlorophenoxy)benzaldehyde semicarbazone] showed a melting point of 218 to 220 °C. In data set [1], this molecule displayed a HsmNa^+ Ki of 60 nM.

Consider `NC(=O)NN=Cc1ccc(Oc2ccc(F)cc2)cc1` [4-(4-Fluorophenoxy) benzaldehyde semicarbazone], for which the “effect on the overall shape of the Na^+ channel current-voltage relationship” value in data set [2] (measured at peak current) is on record as “little effect”.

On to `CN(N=Cc1ccc(Oc2ccc(F)cc2)c(F)c1)C(N)=O` [4-(4-Fluorophenoxy)-3-fluorobenzaldehyde 2′-methylsemicarbazone], for which the melting point is 169 to 172 °C.

Take `NC(=O)NN=Cc1ccc(Oc2ccc(F)cc2)cc1` [4-(4-fluorophenoxy)benzaldehyde semicarbazone]: the “inhibition of voltage-gated Na^+ currents” value in data set [2] (acutely dissociated rat hippocampal neurons) is listed as “dose-dependent inhibition”.

In data set [1], `NC(=O)NN=Cc1ccc(Oc2ccc3c(c2)CCC3)cc1` [4-(5-indanoxy)benzaldehyde semicarbazone, 4-(5-Indanoxy)benzaldehyde semicarbazone] gave a HsmNa^+ Ki of 40 nM.

`NC(=O)NN=Cc1ccc(OCC2CCCCC2)cc1` [Example 10, 4-(Cyclohexylmethoxy)benzaldehyde semicarbazone] yielded a melting point of 218 to 219 °C.

Take `NC(=O)NN=Cc1ccc(OC2CCOCC2)cc1` [Example 12, 4-(4-Tetrahydropyranoxy)benzaldehyde semicarbazone]: the melting point fell in the range of 208 to 209 °C.

With `NC(=O)NN=Cc1ccc(Oc2ccc([N+](=O)[O-])cc2)cc1` [Example 15, 4-(4-Nitrophenoxy)benzaldehyde semicarbazone], the melting point is 221 to 222 °C.

With `CCCCCC(CC)Oc1ccc(C=NNC(N)=O)cc1` (stereo not shown) [Example 32b, 4-(3-Octoxy)benzaldehyde semicarbazone], the melting point amounted to 45 °C.

On to `NC(=O)NN=Cc1ccc(Cc2ccccc2)cc1` [Example 33b, 4-Benzylbenzaldehyde semicarbazone], for which the melting point is 118 to 120 °C.

`NC(=O)NN=Cc1ccc(Oc2ccc(C(F)(F)F)cc2)cc1` [Example 34c, 4-(4-Trifluoromethylphenoxy)benzaldehyde semicarbazone] displayed a melting point of 119 to 122 °C.

Consider `NC1=N[C@H](O)[C@H]2[C@H]3O[C@]4(O)O[C@@H]([C@@H](O)[C@@]2(N1)[C@@H]4O)[C@]3(O)CO` [Tetrodotoxin], for which the IC50 in data set [3] was more than 100000 nM.

The melting point is the temperature, or range, at which the solid turns liquid. Usually IC50 stands for the concentration at which inhibition is half-maximal.
